GI50 and TGI data for 12 compounds are collected here from PubChem BioAssay (NCI).

Test systems include HCT-116 colon; MALME-3M melanoma; A549 NSCLC; K-562 leukemia; RXF 393 renal; MDA-MB-231 breast; COLO 205 colon; CCRF-CEM leukemia; UACC-62 melanoma; BT-549 breast.
Holding throughout (assay): inhibition of tumour cell growth, NCI panel, 48 h

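Cells were grown in 96-well plates and exposed to each compound for 48 hours at five concentrations; endpoints were interpolated linearly between bracketing concentrations, or set to the highest concentration if not reached. Here, GI50 denotes the concentration required for 50% inhibition of growth. TGI: concentration producing complete growth inhibition.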

Take `N#Cc1cccc(C2C3=C(COC3=O)N(CCO)c3cc4c(cc32)CCC4)c1` (centres undefined): the GI50 with HCT-116 colon was 0.143 µM; with MALME-3M melanoma it was 0.173 µM; with A549 NSCLC it was 0.23 µM; with K-562 leukemia, 0.0732 µM; in the test with RXF 393 renal, 0.119 µM; in the test on MDA-MB-231 breast, 0.22 µM. Moreover, the GI50 was 0.146 µM in the test on COLO 205 colon, 0.187 µM in the test on CCRF-CEM leukemia, 0.028 µM with UACC-62 melanoma and 0.182 µM with BT-549 breast. For the same compound, the TGI is 13.3 µM in the test with HCT-116 colon; over 50 µM with MALME-3M melanoma; over 50 µM with A549 NSCLC; over 50 µM in the test with K-562 leukemia; over 50 µM with RXF 393 renal; 1.28 µM with COLO 205 colon. Also, the TGI was over 50 µM in the test with CCRF-CEM leukemia, over 50 µM with UACC-62 melanoma and 5.35 µM in the test on BT-549 breast.

For the compound `Nc1c(C(=O)Nc2ccccn2)sc2nc3c(cc12)CCCCCC3`, the GI50 was 0.225 µM with HCT-116 colon; 1.26 µM in the test with MALME-3M melanoma; 1.65 µM in the test on A549 NSCLC; 0.204 µM in the test with K-562 leukemia; 0.903 µM with RXF 393 renal; 2.5 µM in the test on MDA-MB-231 breast. Further, the GI50 was 1.49 µM with COLO 205 colon, 0.355 µM in the test with CCRF-CEM leukemia, 0.376 µM in the test on UACC-62 melanoma and 0.524 µM in the test on BT-549 breast. In addition, the TGI came out at 7.14 µM in the test on HCT-116 colon; 13.8 µM in the test with MALME-3M melanoma; 9.17 µM in the test on A549 NSCLC; 38.5 µM in the test with K-562 leukemia; 4.07 µM with RXF 393 renal; 15.2 µM in the test on MDA-MB-231 breast. The TGI in the test with COLO 205 colon was 13.6 µM; with CCRF-CEM leukemia, over 50 µM; in the test with UACC-62 melanoma, 10.3 µM; in the test with BT-549 breast, 18 µM.

In the case of `O=[N+]([O-])c1ccc(/C=C\c2ccc3c(c2)OCO3)c([N+](=O)[O-])c1`, the TGI in the test with HCT-116 colon was 21.4 µM; in the test on MALME-3M melanoma, 46.5 µM; with A549 NSCLC, 73.8 µM; with K-562 leukemia, 50.2 µM; with RXF 393 renal, 7.76 µM; in the test on MDA-MB-231 breast, 33.2 µM. The TGI in the test on COLO 205 colon was 32.3 µM; with CCRF-CEM leukemia it was 33.7 µM; in the test with UACC-62 melanoma, 43.2 µM; in the test with BT-549 breast it was 34.2 µM.

Regarding `COc1ncc2cc1NS(=O)(=O)c1cccc(c1)C(=O)NCC1=CC=C(S1)c1ncnc3c1SC2=C3C`, the GI50 is 0.277 µM in the test on HCT-116 colon; 0.302 µM in the test with MALME-3M melanoma; 0.158 µM in the test on A549 NSCLC; 0.596 µM with K-562 leukemia; 0.0721 µM in the test on RXF 393 renal; 0.139 µM in the test on MDA-MB-231 breast. Besides, the GI50 with COLO 205 colon is 0.204 µM; in the test on CCRF-CEM leukemia, 0.153 µM; with UACC-62 melanoma it was 0.248 µM; in the test with BT-549 breast, 0.0855 µM. The TGI was 2.85 µM in the test with HCT-116 colon; 3.09 µM in the test with MALME-3M melanoma; 0.805 µM with A549 NSCLC; over 100 µM in the test with K-562 leukemia; 0.695 µM with RXF 393 renal; 12.8 µM in the test on MDA-MB-231 breast. The TGI was 0.555 µM with COLO 205 colon, 1.16 µM with CCRF-CEM leukemia, 1.24 µM with UACC-62 melanoma and 0.505 µM in the test with BT-549 breast.

As to `Cc1ccc(O)cc1Nc1ccnc2cc(-c3ccccn3)ccc12`, the GI50 is 3.49 µM with HCT-116 colon; 3.59 µM in the test on MALME-3M melanoma; 3.8 µM with A549 NSCLC; 0.0973 µM with K-562 leukemia; 1.95 µM in the test on RXF 393 renal; 1.25 µM in the test with MDA-MB-231 breast. The GI50 was 3.92 µM in the test on COLO 205 colon, 4.86 µM with CCRF-CEM leukemia, 3.45 µM in the test with UACC-62 melanoma and 4.9 µM in the test on BT-549 breast. Also, the TGI with HCT-116 colon came out at 6.96 µM; with MALME-3M melanoma it was 8.32 µM; in the test on A549 NSCLC, 8.39 µM; in the test on K-562 leukemia, 2.52 µM; with RXF 393 renal, 5.37 µM; in the test with MDA-MB-231 breast it was 5.6 µM. The TGI with COLO 205 colon is 7.34 µM; with CCRF-CEM leukemia, 15 µM; with UACC-62 melanoma, 7.34 µM; in the test with BT-549 breast, 10.3 µM.

Turning to `CC/C(=C(/c1ccc(/C=C/C(=O)O)cc1)c1ccc2[nH]ncc2c1)c1ccc(F)cc1Cl`, the GI50 in the test with HCT-116 colon is 7.45 µM; in the test on MALME-3M melanoma, 18.6 µM; with A549 NSCLC it was 8.58 µM; in the test on K-562 leukemia, 12.1 µM; with RXF 393 renal, 5.31 µM; in the test on MDA-MB-231 breast it was 16.2 µM. Also, the GI50 in the test on COLO 205 colon is 15.5 µM; in the test on CCRF-CEM leukemia, 8.37 µM; with UACC-62 melanoma, 5.85 µM; with BT-549 breast it was 7.79 µM. Moreover, the TGI stood at 20.8 µM in the test on HCT-116 colon; 44.9 µM in the test with MALME-3M melanoma; 25.1 µM in the test on A549 NSCLC; 41 µM in the test with K-562 leukemia; 16.3 µM in the test on RXF 393 renal; 34.6 µM in the test on MDA-MB-231 breast. Besides, the TGI in the test on COLO 205 colon amounted to 35.3 µM; in the test with CCRF-CEM leukemia it was 30.7 µM; in the test with UACC-62 melanoma, 21.8 µM; in the test on BT-549 breast, 22.7 µM.

Consider `CN(C)CCS(=O)(=O)Nc1cc(-c2ccc3ncnc(Nc4ccc(F)c(Cl)c4)c3c2)cnc1Cl`, for which the GI50 in the test on HCT-116 colon is 0.829 µM; in the test with MALME-3M melanoma, 0.114 µM; in the test on A549 NSCLC, 0.803 µM; with K-562 leukemia it was 2.95 µM; with RXF 393 renal, 0.256 µM; with MDA-MB-231 breast it was 0.37 µM. Besides, the GI50 in the test on COLO 205 colon is 0.748 µM; with CCRF-CEM leukemia, 0.322 µM; with UACC-62 melanoma, 0.938 µM; with BT-549 breast it was 0.24 µM. The TGI is 6.43 µM with HCT-116 colon; 0.666 µM with MALME-3M melanoma; 3.26 µM in the test with A549 NSCLC; over 54.5 µM in the test with K-562 leukemia; 1.22 µM with RXF 393 renal; 1.8 µM in the test with MDA-MB-231 breast. Besides, the TGI in the test with COLO 205 colon was 2.22 µM; in the test on CCRF-CEM leukemia it was over 37 µM; in the test with UACC-62 melanoma, 3.4 µM; with BT-549 breast, 1.38 µM.

On to `Oc1ccc(-c2[nH]c3ccccc3c2-c2nc3ccccc3o2)cc1`, for which the GI50 was 3.15 µM in the test on HCT-116 colon; 7.47 µM in the test on MALME-3M melanoma; 3.15 µM in the test on A549 NSCLC; 3.98 µM in the test with K-562 leukemia; 4.24 µM in the test on RXF 393 renal; 1.47 µM in the test on MDA-MB-231 breast. Moreover, the GI50 with COLO 205 colon was 3.54 µM; with CCRF-CEM leukemia, 4.91 µM; in the test with UACC-62 melanoma it was 3.1 µM; in the test with BT-549 breast it was 5.41 µM. The TGI amounted to 13 µM with HCT-116 colon; 28.3 µM in the test with MALME-3M melanoma; 11.4 µM in the test on A549 NSCLC; 21.8 µM in the test with K-562 leukemia; 18.9 µM in the test with RXF 393 renal; 5.64 µM in the test with MDA-MB-231 breast. For the same compound, the TGI in the test with COLO 205 colon is 12.6 µM; in the test on CCRF-CEM leukemia, 46.2 µM; in the test on UACC-62 melanoma, 15 µM; in the test with BT-549 breast, 18.8 µM.

As for `NCC(Cc1ccccc1)P(=O)(O)O` (centres undefined), the TGI with HCT-116 colon, in the test with MALME-3M melanoma, in the test with A549 NSCLC, in the test on K-562 leukemia, in the test with RXF 393 renal and in the test with MDA-MB-231 breast was over 100 µM in each case. In addition, the TGI in the test with COLO 205 colon, in the test on CCRF-CEM leukemia, in the test with UACC-62 melanoma and with BT-549 breast was over 100 µM throughout.

As to `Cc1nn2c(-c3nc4cc(Cl)c(Cl)cc4[nH]3)c(-c3ccc(F)cc3)nc2s1`, the GI50 in the test with HCT-116 colon is 1.3 µM; in the test with MALME-3M melanoma, 3.23 µM; in the test on A549 NSCLC, 1.92 µM; with K-562 leukemia it was over 100 µM; in the test on RXF 393 renal, 1.84 µM; with MDA-MB-231 breast, 1.25 µM. In addition, the GI50 in the test on COLO 205 colon is over 70.2 µM; with CCRF-CEM leukemia it was over 100 µM; in the test on UACC-62 melanoma it was 3.49 µM; in the test with BT-549 breast it was 8.57 µM. Besides, the TGI in the test with HCT-116 colon was over 26 µM; in the test with MALME-3M melanoma it was 15 µM; in the test with A549 NSCLC, over 42.3 µM; in the test with K-562 leukemia, over 100 µM; in the test on RXF 393 renal, 5.41 µM; in the test with MDA-MB-231 breast, 3.74 µM. For the same compound, the TGI in the test on COLO 205 colon was over 100 µM; in the test with CCRF-CEM leukemia it was over 100 µM; in the test with UACC-62 melanoma, over 46.3 µM; in the test with BT-549 breast, over 100 µM.

For `CCN(CCNc1ccc(C)c2sc3cc(Cl)ccc3c(=O)c12)CC(C)(C)O`, the GI50 in the test with HCT-116 colon is 4.94 µM; in the test with MALME-3M melanoma it was 2.16 µM; in the test with A549 NSCLC, 5.2 µM; with K-562 leukemia it was 3.19 µM; with RXF 393 renal it was 2.3 µM; in the test with MDA-MB-231 breast it was 2.31 µM. Besides, the GI50 in the test on COLO 205 colon was 1.89 µM; in the test on CCRF-CEM leukemia, 7.5 µM; in the test on UACC-62 melanoma, 1.67 µM; with BT-549 breast, 18.7 µM. In addition, the TGI in the test with HCT-116 colon is 18.2 µM; with MALME-3M melanoma it was 7.3 µM; in the test on A549 NSCLC, 19.5 µM; in the test on K-562 leukemia it was 11.7 µM; in the test on RXF 393 renal it was 5.4 µM; in the test with MDA-MB-231 breast, 11.5 µM. In addition, the TGI in the test on COLO 205 colon is 3.94 µM; in the test with CCRF-CEM leukemia it was 61 µM; with UACC-62 melanoma, 3.37 µM; with BT-549 breast, over 100 µM.

`O=C(CN(/C=C/C(=O)C(F)(F)F)c1ccccc1)c1ccc(F)cc1`: the GI50 with HCT-116 colon was 25.3 µM; in the test with MALME-3M melanoma, 26.7 µM; with A549 NSCLC, 35.4 µM; in the test with K-562 leukemia, 18.1 µM; in the test on RXF 393 renal, 39.8 µM; with MDA-MB-231 breast it was 17.7 µM. Further, the GI50 with COLO 205 colon was 25 µM; in the test on CCRF-CEM leukemia, 15.8 µM; with UACC-62 melanoma, 13 µM; with BT-549 breast, 31.5 µM. Also, the TGI was 88.1 µM with HCT-116 colon; 74.1 µM in the test with MALME-3M melanoma; over 100 µM in the test with A549 NSCLC; 52.6 µM in the test with K-562 leukemia; over 100 µM in the test on RXF 393 renal; 42.1 µM in the test with MDA-MB-231 breast. For the same compound, the TGI in the test with COLO 205 colon was 58.3 µM; with CCRF-CEM leukemia, 41.4 µM; in the test on UACC-62 melanoma, 26.9 µM; with BT-549 breast, over 100 µM.
